pIC50: −log10 of the molar value. Like-named read-outs stand apart in the source and are kept apart here.
Columns and labels:
CYP3A4 = assay: CYP inhibition / time-dependent inhibition, CYP3A4_Midazolam; type: in vitro ADME, human; conditions: role: inhibitor; substrate midazolam 2.0 μM; CYP TDI ratio
Experimental: The time-dependent inactivation potency of the test compound to CYP enzymatic activities was assessed by the pre-incubation of the human liver microsomes with the test compound in the presence and absence of NADPH, followed by the incubation with the discrete marker substrates, as follows.
Pre-incubation with human liver microsomes (HLMs): The TDI inactivation potency on CYP enzymatic activities was evaluated through pre-incubation with HLMs (Corning). A liver microsome mixture at a concentration of 0.1 mg/mL, and the test compound at 8 different concentrations (0, 0.05, 0.165, 0.5, 1.65, 5.0, 16.5, or 50.0 μM) was warmed at 37° C. for 10 minutes. Concurrently, a set of known time-dependent inactivators was also prepared in duplicate for comparison. Following this, NADPH (1.0 mM) was added to one group (Group 1), and an equal volume of potassium phosphate buffer to the second group (Group 2), marking the beginning of a 30-minute pre-incubation at 37° C.
Incubation: After pre-incubation, the marker substrate, or marker substrate plus NADPH was added to the mixture, thereby initiating the incubation. The duration of the incubation was dependent on the type of CYP isoform being evaluated. For example, with the CYP3A isoform, the mixture was incubated over 3 minutes utilizing midazolam as the marker substrate (2.0 μM), verapamil as the standard inactivator (3.5 μM).
Termination of Reaction: Following the incubation, ice-cooled acetonitrile containing the internal standard (IS) was added to halt the reactions. Metabolites generated from the marker substrates were then measured via LC-MS/MS, assessed based on peak area ratios of the analyte to IS.

[1] = Human liver microsome metabolic stability; type: in vitro ADME; conditions: for half-life at 1 µM: human, liver microsomes, read-out: HLM T1/2; for half-life at 1 µM / HLM T1/2: human liver microsomes; for HLM T1/2: 1 µM
From the text: Liver microsomes which are subcellular particles derived from endoplasmic reticulum of hepatic cells were used for evaluating the tested compounds. These particles are rich in drug metabolizing enzymes, including the cytochrome p-450 family. Liver microsomes are a recommended test system for various in vitro drug metabolism and pharmacokinetics (DMPK) studies. CLint values lower than […] are considered suitable for drug development.
Liver Microsome Metabolic Stability Assay (NADPH): The liver microsome stability assay was evaluated through pre-incubation with HLMs. A liver microsome mixture (pooled from multiple donors) at a concentration of 0.5 mg/mL, and the test compound at a concentration of 1 μM, were warmed in the presence of a NADPH regenerating system (about 1.0 mM) at 37° C. Positive controls, including testosterone (a CYP3A4 substrate), propafenone (a CYP2D6 substrate), and diclofenac (a CYP2C9) substrate, were concurrently incubated with the HLMs, in the presence of the NADPH regenerating system (1.0 mM). Samples were extracted during incubation at multiple intervals: 0, 5, 15, 30, 45 and 60 minutes. To terminate the reactions, the samples were promptly mixed with cooled acetonitrile that included an internal standard (IS). An additional compound was incubated with the HLMs in the absence of the NADPH regeneration system, from which a sample was taken at the 60-minute interval.
The clearance of the test compound in the samples was subsequently analyzed by LC-MS/MS based on the peak area ratios of the analyte to the IS.
The following equation was used to calculate the microsome clearance: […]
Liver weight: 40 grams/kg, 30 grams/kg, 32 grams/kg, 20 grams/kg and 88 grams/kg, for rat, monkey, dog, human and mouse, respectively.

[2] = Log D, 1-octanol/buffer shake flask; type: physicochemical; conditions: pH 7.4
Experimental: The Log D assay was a miniaturized 1-octanol/buffer shake flask method followed by LC/MS/MS analysis, as follows.
The test compounds or control compounds Nadolol, Chlorpromazine Hydrochloride and Propranolol Hydrochloride were dissolved in 100% DMSO to obtain 10 mM solutions, which were transferred to 96-well polypropylene cluster tubes; 2 μL/well. 1-octanol saturated with 0.1 M phosphate buffer (149 μL/well) and 0.1 M phosphate buffer saturated with 1-octanol (149 μL/well) were added to the tubes, respectively, and each tube was vigorously mixed for 2 minutes and then shaked at a speed of 800 rpm at room temperature for 1 hour, followed by centrifugation at 4000 rpm for 5 minutes at room temperature. Thereafter, for the test compounds and the Chlorpromazine Hydrochloride and Propranolol Hydrochloride, the sample of the buffer layer was diluted by a factor of 50-fold and the sample of 1-octanol layer was diluted by a factor of 2000-fold with internal standard (IS) solution. For Nadolol, the sample of the buffer layer was diluted by a factor of 1000-fold and the sample of 1-octanol layer was diluted by a factor of 400-fold with internal standard (IS) solution. The samples were analyzed using a triple quadrupole mass spectrometer. Peak areas were corrected by dilution factors and embedded internal standard, and the ratio of the corrected peak areas was used to calculate the Log D value. The Log D value for each compound will be calculated by the following equation: […]

[3] = Metabolite identification (Met-ID), human hepatocytes; type: in vitro ADME; conditions: human hepatocytes
Experimental: Cell culture and incubation: Cryopreserved hepatocyte cells, from human and rat sources, were purchased from commercial sources or in-house production, and were cultured in Williams' Medium E supplemented with glutamine and HEPES, in a humidified 5% CO2 incubator at 37° C., to a cell density of […]. Then, solutions of test compounds at a concentration of 10 μM, or 7-Ethoxycoumarin, as a positive control, at a concentration of 30 μM, in Eagle's Minimum Essential Medium, Catalog No. 30-2003 (ATCC) supplemented with 20% fetal bovine serum, were introduced and the mixture was incubated for 120 minutes, or other specified time points.
The samples were analyzed for metabolites using an LC-MS method developed on […] and PDA systems. Comparative analyses of mass spectra and ion fragmentation between the parent compound and its metabolites were carried out, and metabolic profiling was determined using the mass spectrometric and/or PDA (UV) response. Hypothetical structures of metabolites and their metabolic pathways were proposed.

Rat pharmacokinetics = type: in vivo; conditions: rat, plasma
Experimental: The pharmacokinetic (PK) properties of test compound following single intravenous (IV) bolus and oral gavage (PO) administration in male Sprague-Dawley (SD) rats were determined in this study.
Test compound administration: Six male Sprague Dawley (SD) rats were divided into two designated groups, Group 1 and Group 2, each composed of three rat subjects. Group 1 animals were subjected to a single intravenous bolus administration of the test compound at a dosage of 1 mg/kg. Group 2 animals were administered with the test compound orally in a single dose, at a concentration of 10 mg/kg. Throughout the study, the animals had unhindered access to food. The test compound was administered at a concentration of 0.5 mg/mL and dose volume of 2 mL/kg for Group 1, and at a concentration of 1 mg/mL and dose volume of 10 mL/kg, for Group 2.
Sample extraction and analysis: Plasma samples were systematically collected at varying time points of 0.083 (only for Group 1), 0.25, 0.5, 1, 2, 4-, 6-, 8-, and 24-hours post-dose. LC-MS/MS was used to determine the test compound's concentration within the collected plasma samples. Data reflecting plasma concentration in correlation to time were graphically represented and subjected to a non-compartmental analysis using the Phoenix WinNonlin 6.3 software program. The resulting pharmacokinetic parameters, including Clearance (Cl), Volume of distribution at steady state (Vdss) and initial concentration (C0) for intravenous administration; peak concentration (Cmax), time of peak concentration (Tmax), and bioavailability (% F) for extravascular administration; and half-life (T1/2), Area Under Curve from time zero to time t (AUC(0-t)), Area Under Curve from time zero to infinity (AUC(0-inf)), Mean Residence Time from time zero to time t (MRT(0-t)), Mean Residence Time from time zero to infinity (MRT(0-inf)) for all routes, were systematically calculated.

hTRPV1 = biological target: T1, hTRPV1 (Homo sapiens, UniProt Q8NER1); assay: hTRPV1 dual activity electrophysiology, CHO cells co-expressing hKv7.2/3 and hTRPV1; type: cell-based; conditions: Kv7.2/3 co-expressed and activated, capsaicin; read-out: Dual hTRPV1 / Dual Expressing CHO, CAP IC50
T1 construct: CDS of NM_080704.4, inserted into the multiple cloning site of pcDNA3.1(+); host or cells: CHO/hKv7.2/3
Experimental: Cell culture and DNA transfection: CHO/hKv7.2/3 cells were transfected with hTRPV1 DNA constructs (CDS of NM_080704.4, inserted into the multiple cloning site of pcDNA3.1(+) between the Hind III and BamH I restriction site, Genscript). For CHO transfection, 1×10^6 cells were suspended in a reaction mix (Amaxa™ 4D-Nucleofector™-LONZA) containing 5 μg of hTRPV1 DNA and 0.5 μg of GFP DNA (for cells selection) in a cuvette.
The cells were transformed (Amaxa, DT-133 program for CHO transfection with p-3 Kit) and recovered for 10 minutes at RT in the hood. Then cells were re-suspended in a 10 mL antibiotic (Ab)-free medium suspension and were plated on Gelatin or PLL-coated cover glass in different cell densities. On the next morning, the medium was changed to full medium containing the CHO/hKv7.2/3 cell line selection antibiotics.
Extracellular (Bath) solution: The solution was composed of (in mM): NaCl, 140; KCl, 4; CaCl2, 1.8; MgCl2, 1.2; Glucose, 11; HEPES, 5.5. pH was adjusted to 7.3 with NaOH. Osmolarity was adjusted to 310 mOsm with Sucrose.
Intracellular (Pipette) solution: Pipettes were pulled from borosilicate glass (Warner Instrument Corp, USA) with a resistance of 3-7 MΩ and were filled with internal solution composed of (in mM): KCl, 130; MgCl2, 1; K ATP, 5; EGTA, 5; HEPES, 10. pH was adjusted to 7.3 with KOH. Osmolarity was adjusted to 290 mOsm with Sucrose.
A programmable valve-linked pressurized perfusion system was used for local application of compounds nearby the cell recorded in a consistent flow rate of 2-3 mL/minute. Series resistance was corrected and data were sampled at 5 kHz and low pass filtered at 2.4 kHz using MultiClamp 700B amplifier with pCLAMP11 software (Molecular Devices, USA).
At least 48 hours following cell transfection and plating, cells were recorded to assess the TRPV1 dual activity. Membrane potential was held at −90 mV. To measure the inhibitory effects of the tested compounds on hTRPV1 dual activity the following protocol was performed:
Cells were perfused with vehicle-only containing bath solution. After 30 seconds, a single −40 mV 1.5 second step was applied for Kv7.2/3 activation and 30 seconds later capsaicin (1 μM) was applied for 6 seconds to activate the TRPV1.
Cells perfusion was changed to a compound-containing bath solution, and after 2 minutes and 30 seconds of compound application, a single −40 mV 1.5 second step was applied for Kv7.2/3 activation and 30 seconds later capsaicin (1 μM) was applied for 6 seconds to activate the TRPV1.
Cells perfusion was thereafter changed back to vehicle only-containing bath solution. After 30 seconds, a single −40 mV 1.5 step was applied for Kv7.2/3 activation and 30 seconds later capsaicin (1 μM) was applied for 6 seconds to activate the TRPV1 followed by a capsaicin wash out.
The drug current response, when capsaicin was injected following 3 minutes of pre-incubation with the test compound, was divided by the averaged control currents, induced without compound, before compound incubation and following its washout, to evaluate the drug/control response.

[4] = 1-octanol/phosphate buffer, read-out: LogD

T1 sequence (Q8NER1 whole entry): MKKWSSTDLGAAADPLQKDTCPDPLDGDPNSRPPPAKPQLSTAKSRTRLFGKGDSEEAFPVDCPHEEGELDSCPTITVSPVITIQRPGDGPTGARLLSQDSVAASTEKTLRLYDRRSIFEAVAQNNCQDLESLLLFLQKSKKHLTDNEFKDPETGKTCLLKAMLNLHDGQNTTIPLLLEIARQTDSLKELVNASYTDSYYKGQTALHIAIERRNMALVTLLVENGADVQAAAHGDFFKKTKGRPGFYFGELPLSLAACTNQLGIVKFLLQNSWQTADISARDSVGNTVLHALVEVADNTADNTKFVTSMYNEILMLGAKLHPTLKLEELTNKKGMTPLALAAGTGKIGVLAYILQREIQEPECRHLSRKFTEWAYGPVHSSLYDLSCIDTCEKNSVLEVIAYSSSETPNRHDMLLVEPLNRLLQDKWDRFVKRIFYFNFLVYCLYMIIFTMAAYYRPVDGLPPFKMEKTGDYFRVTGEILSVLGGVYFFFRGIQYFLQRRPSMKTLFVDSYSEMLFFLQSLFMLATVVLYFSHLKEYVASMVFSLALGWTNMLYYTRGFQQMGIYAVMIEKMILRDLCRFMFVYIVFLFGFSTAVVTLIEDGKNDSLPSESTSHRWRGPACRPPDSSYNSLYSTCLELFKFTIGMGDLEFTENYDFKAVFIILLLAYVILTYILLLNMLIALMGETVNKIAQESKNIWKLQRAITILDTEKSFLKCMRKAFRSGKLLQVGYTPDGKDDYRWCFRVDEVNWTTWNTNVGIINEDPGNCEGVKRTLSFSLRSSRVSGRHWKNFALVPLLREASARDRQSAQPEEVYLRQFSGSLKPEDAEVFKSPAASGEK

CYP-TDI (midazolam), (−)NADPH/(+)NADPH Ratio CYP3A4 (CYP3A4)	half-life at 1 µM [1]	logD [2, 4]	clearance (Rat pharmacokinetics; iv, 1 mg/kg, read-out: PK: Cl)	bioavailability (Rat pharmacokinetics; po, 10 mg/kg, read-out: PK: Oral BA)	pIC50 (hTRPV1)	Structure (SMILES)	HLM and/or Rat PK clearance rates compared to compound 661 [1]	Human Hepatocytes MetID (glutathione conjugation) [3]	HLM T1/2 [1]	logD [2]
1.20	61.9 min	3.3	42.5 mL/min/kg	79.7%	–	O=C(Cc1nccc(-n2cc(Cl)c3cc(Cl)cc(Cl)c32)n1)NCCO [Compound 767]	improved HLM and/or Rat PK clearance rates compared to compound 661	did not indicate the presence of glutathione conjugation and None	–	–
>2.67	15.4 min	> 4.1	–	–	–	CC(C)(C)c1cn(-c2cncc(CC(=O)N[C@@H]3COC[C@H]3O)c2)c2c(Cl)cc(Cl)cc12 [Compound 800]	–	–	–	–
2.04	26.7 min	4.29	–	–	–	O=C(Cc1cncc(-n2cc(C3CC3)c3cc(Cl)cc(Cl)c32)c1)N[C@@H]1COC[C@H]1O [Compound 790]	–	–	–	–
>1.9	34.8 min	3.88	–	–	–	O=C(Cc1cncc(-n2cc(C(F)(F)F)c3cc(Cl)cc(Cl)c32)c1)N[C@@H]1COC[C@H]1O [Compound 770]	–	–	–	–
–	–	–	–	–	5.97	O=C(Cc1cc(-n2cc(Cl)c3cc(Cl)cc(Cl)c32)ncn1)NCCO [Compound 851]	improved HLM and/or Rat PK clearance rates compared to compound 661	did not indicate the presence of glutathione conjugation	60.6 min	3.38

Structure (SMILES)	CYP-TDI (midazolam), (−)NADPH/(+)NADPH Ratio CYP3A4 (CYP3A4)	half-life at 1 µM [1]	logD [2, 4]	clearance (Rat pharmacokinetics; iv, 1 mg/kg, read-out: PK: Cl)	bioavailability (Rat pharmacokinetics; po, 10 mg/kg, read-out: PK: Oral BA)	pIC50 (hTRPV1)	HLM and/or Rat PK clearance rates compared to compound 661 [1]	Human Hepatocytes MetID (glutathione conjugation) [3]	HLM T1/2 [1]	logD [2]
O=C(Cc1cncc(N2CC3(CC3)c3cc(Cl)cc(Cl)c32)c1)NC1COCC1O (stereo not shown) [Compound 730]	>1.57	–	–	–	–	–	–	–	9.9 min	3.22
CC1(C)CN(c2cncc(CC(=O)NC3COCC3O)c2)c2c(Cl)cc(Cl)cc21 (stereo not shown) [Compound 720]	>1.6	–	–	–	–	–	–	–	6.1 min	3.24
CC1CN(c2cncc(CC(=O)NC3COCC3O)c2)c2c(Cl)cc(Cl)cc21 (mixture of isomers) [Compound 710]	1.22	–	–	–	–	–	–	did not indicate the presence of glutathione conjugation	10.1 min	2.88

— patent US20260327211A1, “MODULATORS OF A POTASSIUM CHANNEL AND OF TRPV1 CHANNEL AND USES THEREOF” (Bsense Bio Therapeutics Ltd., priority 2023, published 2026)
